Patent publication US20260207765A1, “COVALENTLY-MODIFIED STEROID ACID-PEPTIDES HAVING ENHANCED STABILITY AND/OR BIOLOGICAL ACTIVITY” (priority 2022, published 2026)
Positions of bridges follow the written chain, without caps; N, C: chain ends. Residues, ends and D or L forms follow the SMILES beside them. Chains are numbered I, II in the order given. No end group written: not given here. *: point of attachment. Chenodeoxycholyl = C[C@H](CCC(=O)*)[C@H]1CC[C@H]2[C@@H]3[C@H](O)C[C@@H]4C[C@H](O)CC[C@]4(C)[C@H]3CC[C@]12C; Cholyl = C[C@H](CCC(=O)*)[C@H]1CC[C@H]2[C@@H]3[C@H](O)C[C@@H]4C[C@H](O)CC[C@]4(C)[C@H]3C[C@H](O)[C@]12C

How the values were obtained:
[1] = test system: EL4, B16, E0771, CT-26, 4T1, MBA-MD-468, H460 and A549 cancer cells; experiment: Annexin-V cytotoxicity screen of bile acid-SV40 conjugates on eight tumor cell lines; format: cell-based; conditions: 190 μM, all eight tumor cell lines
Description: Annexin-V staining percentage after treatment with different bile acid-SV40 conjugates (190 μM) is shown relative to live cancer cells (i.e., PBS treated cancer cells) by flow cytometry. Cancer cell lines tested were EL4 lymphoma, B16 melanoma, E0771 breast cancer, CT-26 colon carcinoma, 4T1 breast cancer, MBA-MD-468 triple-negative breast cancer, human H460 lung cancer, and human A549 lung cancer. […] SV40 alone was also tested as a negative control.
(§1) Apoptosis analysis was conducted by flow-cytometry. Briefly, target cells were first treated then washed. Treated cells were then re-suspended in Annexin-V staining buffer prior to staining with Annexin-V and propidium iodine (PI). Fifteen minutes later, cells were washed prior to analysis using BD FACS™ Diva on CANTOII™.

[2] = test system: bone marrow-derived dendritic cells (DCs); experiment: Apoptosis analysis by flow cytometry on bone marrow-derived dendritic cells; format: cell-based, mouse; conditions: 190 μM
Description: Mouse bone marrow derived DCs (BMDCs) were generated by flushing the whole marrow from mouse femurs using RPMI™ 1640 supplemented with 10% fetal bovine serum (FBS), 50 U/mL Penicillin-Streptomycin, 2 mM L-glutamine, 10 mM HEPES, 1% MEM Non-essential Amino Acids, 1 mM Sodium Pyruvate, 0.5 mM β-mercaptoethanol. Following red blood cell lysis, cells were then cultured in media supplemented with 50 ng/mL murine recombinant GM-CSF. The media was changed on days 2, 4, 6 and 8. On day 9, the media was replaced to include recombinant murine GM-CSF and LPS from Escherichia coli 0111 (1 ng/mL) to stimulate DC maturation. Mature DCs were assessed by flow cytometry for their surface expression of CD3, CD19, NK1.1, CD11c, CD80, CD86, and I-A^b.
as §1

EL4 lymphoma cells = experiment: Apoptosis analysis / kill curve by flow cytometry (Annexin-V, PI); format: cell-based, mouse
Description: as §1

[3] = test system: mesenchymal stromal cells (MSCs); experiment: Apoptosis analysis by flow cytometry on MSCs; format: cell-based; conditions: 190 μM
Description: as §1

EL4 lymphoma = experiment: EL4 tumor model in mice; format: in vivo, mouse; conditions: highest tested dose (190 μM), every 48 h, total of 5 injections
Description: Female C57BL/6 mice (n=10/group) received a SC injection of 5×10^5 EL4 cells at Day 0. […] For all depletion studies, antibodies were injected via the intraperitoneal route at days 0, 3 and 6 at a concentration of 200 μg/injection. Tumor size and animal survival for all of the above listed in vivo studies was followed thereafter using a digital caliber until reaching endpoints (ulceration or a tumor volume ≥1000 mm^3).

macrophages = experiment: Apoptosis analysis by flow cytometry on macrophages; format: cell-based; conditions: 190 μM
Description: as §1

[4] = test system: JIMT-1 breast cancer cells; experiment: Cytotoxicity of steroid acid-peptide conjugates in JIMT-1 cells; format: cell-based; conditions: JIMT-1, FIGS. 21A and 21B
Description: as §1
50 mg of CDCA-C-SV40 monomers (or other steroid acid-peptide monomers) were resuspended in 200-500 μL of DMSO. 10 eq of N,N-Diisopropylethylamine (DIPEA) was added to the mixture and incubated in a thermomixer at 37° C. with agitation (1000 rpm) overnight, enabling dimerization of the monomers via their N-terminal cysteine thiol groups to produce (CDCA-C-SV40)2 or other dimers. The samples were then analyzed by UPLC-MS to evaluate dimer formation efficiency. Cell toxicity was evaluated via a Cell Toxicity assay (PrestoBlue™).

[5] = test system: wild-type MSC and B3Z reporter system; experiment: Antigen cross-presentation, wild-type MSC and B3Z reporter system; conditions: 50 μM, sample stored 3 months at −80° C. (thawed)

CC(C)[C@H](NC(=O)[C@H](CCCCN)NC(=O)[C@H](CCCNC(=N)N)NC(=O)[C@H](CCCCN)NC(=O)[C@H](CCCCN)NC(=O)[C@H](CCCCN)NC(=O)[C@@H]1CCCN1C(=O)CNC(=O)[C@H](Cc1ccc(O)cc1)NC(=O)CNC(=O)[C@H](CS)NC(=O)CC[C@@H](C)[C@H]1CC[C@H]2[C@@H]3[C@H](O)C[C@@H]4C[C@H](O)CC[C@]4(C)[C@H]3CC[C@]12C)C(=O)NCC(=O)NCC(=O)O [CDCA-C-SV40] (Chenodeoxycholyl-CGYGPKKKRKVGG-OH)
cytotoxic activity [1]: 100%

CC(C)[C@H](NC(=O)[C@H](CCCCN)NC(=O)[C@H](CCCNC(=N)N)NC(=O)[C@H](CCCCN)NC(=O)[C@H](CCCCN)NC(=O)[C@H](CCCCN)NC(=O)[C@@H]1CCCN1C(=O)CNC(=O)[C@H](Cc1ccc(O)cc1)NC(=O)CNC(=O)[C@H](CS)NC(=O)CC[C@@H](C)[C@H]1CC[C@H]2[C@@H]3[C@H](O)C[C@@H]4C[C@H](O)CC[C@]4(C)[C@H]3C[C@H](O)[C@]12C)C(=O)NCC(=O)NCC(=O)O [CA-C-SV40] (Cholyl-CGYGPKKKRKVGG-OH)
apoptosis in normal or healthy cells [2]: induce apoptosis
cytotoxicity of Cholic acid-NLS conjugates (EL4 lymphoma cells; 190 μM, EL4, FIG. 6): notably higher
EC50 (EL4 lymphoma cells; EL4 lymphoma cells, flow cytometry, read-out: EC50 (cell death / kill curve)): 95.9 µM
apoptosis in normal or healthy cells [3]: induce apoptosis
survival at day 40 (EL4 lymphoma): 60%
apoptosis in normal or healthy cells (macrophages): induce apoptosis

CC(C)[C@H](NC(=O)[C@H](CCCCN)NC(=O)CNC(=O)[C@H](Cc1ccc(O)cc1)NC(=O)CNC(=O)[C@H](CO)NC(=O)[C@H](CSSC[C@H](NC(=O)CC[C@@H](C)[C@H]1CC[C@H]2[C@@H]3[C@H](O)C[C@@H]4C[C@H](O)CC[C@]4(C)[C@H]3CC[C@]12C)C(=O)N[C@@H](CO)C(=O)NCC(=O)N[C@@H](Cc1ccc(O)cc1)C(=O)NCC(=O)N[C@@H](CCCCN)C(=O)N[C@H](C(=O)N[C@@H](CO)C(=O)N[C@@H](CCCNC(=N)N)C(=O)N[C@@H](CCCNC(=N)N)C(=O)NCC(=O)NCC(=O)N[C@@H](Cc1c[nH]cn1)C(=O)N[C@@H](CCC(N)=O)C(=O)N[C@@H](CC(N)=O)C(=O)N[C@@H](CO)C(=O)N[C@@H](Cc1ccc(O)cc1)C(=O)N[C@@H](CCCCN)C(=O)N1CCC[C@H]1C(=O)N[C@@H](Cc1ccc(O)cc1)C(=O)O)C(C)C)NC(=O)CC[C@@H](C)[C@H]1CC[C@H]2[C@@H]3[C@H](O)C[C@@H]4C[C@H](O)CC[C@]4(C)[C@H]3CC[C@]12C)C(=O)N[C@@H](CO)C(=O)N[C@@H](CCCNC(=N)N)C(=O)N[C@@H](CCCNC(=N)N)C(=O)NCC(=O)NCC(=O)N[C@@H](Cc1c[nH]cn1)C(=O)N[C@@H](CCC(N)=O)C(=O)N[C@@H](CC(N)=O)C(=O)N[C@@H](CO)C(=O)N[C@@H](Cc1ccc(O)cc1)C(=O)N[C@@H](CCCCN)C(=O)N1CCC[C@H]1C(=O)N[C@@H](Cc1ccc(O)cc1)C(=O)O [(CDCA-C-hnRNP D NLS)2] (I: Chenodeoxycholyl-CSGYGKVSRRGGHQNSYKPY-OH / II: Chenodeoxycholyl-CSGYGKVSRRGGHQNSYKPY-OH; disulfide I:1-II:1)
cytotoxicity of dimerized version versus monomer [4]: enhancement of cytotoxicity

CA-C-hnRNPA1: cholic acid conjugated to C-hnRNPA1 M9 NLS peptide (SEQ ID NO: 4) (Cholyl-CSNFGPMKGGNFGGRSSGPY)
antigen presentation [5]: reduced antigen presentation activity

SV40 NLS: nuclear localization signal from SV40 large T-antigen (PKKKRKV; SEQ ID NO: 2), tested alone as negative control [reference compound]
cytotoxic activity (EL4 lymphoma cells): did not exhibit any cytotoxic activity

CC[C@H](C)[C@H](NC(=O)[C@H](CCCNC(=N)N)NC(=O)[C@H](CCCCN)NC(=O)[C@H](CCSC)NC(=O)[C@H](CC(C)C)NC(=O)[C@H](Cc1c[nH]cn1)NC(=O)[C@@H](NC(=O)[C@@H](NC(=O)[C@H](Cc1ccc(O)cc1)NC(=O)CNC(=O)[C@H](C)NC(=O)[C@@H](NC(=O)[C@H](CCCCN)NC(=O)[C@H](CC(N)=O)NC(=O)[C@H](CCCNC(=N)N)NC(=O)[C@H](CC(C)C)NC(=O)[C@H](CCCCN)NC(=O)[C@H](CCCCN)NC(=O)[C@H](CO)NC(=O)[C@H](CS)NC(=O)CC[C@@H](C)[C@H]1CC[C@H]2[C@@H]3[C@H](O)C[C@@H]4C[C@H](O)CC[C@]4(C)[C@H]3C[C@H](O)[C@]12C)[C@@H](C)CC)C(C)C)[C@@H](C)O)C(=O)O [CA-C-NLS3 RPS17] (Cholyl-CSKKLRNKIAGYVTHLMKRI-OH; N-terminus and C-terminus assumed)
survival at day 40 (EL4 lymphoma): 20%
tumor growth (EL4 lymphoma): significantly delayed tumor growth

CSCC[C@H](NC(=O)[C@H](CS)NC(=O)CC[C@@H](C)[C@H]1CC[C@H]2[C@@H]3[C@H](O)C[C@@H]4C[C@H](O)CC[C@]4(C)[C@H]3C[C@H](O)[C@]12C)C(=O)NCC(=O)N[C@@H](CCCNC(=N)N)C(=O)N[C@H](C(=O)N[C@@H](CCCNC(=N)N)C(=O)N[C@H](C(=O)N[C@@H](CCCCN)C(=O)N[C@H](C(=O)N[C@H](C(=O)N[C@@H](CCCCN)C(=O)N[C@@H](CCCCN)C(=O)N[C@@H](C)C(=O)N[C@@H](C)C(=O)NCC(=O)NCC(=O)O)C(C)C)[C@@H](C)O)[C@@H](C)O)C(C)C [CA-C-NLS1 RPS17] (Cholyl-CMGRVRTKTVKKAAGG-OH; N-terminus and C-terminus assumed)
survival at day 40 (EL4 lymphoma): 20%
tumor growth (EL4 lymphoma): significantly delayed tumor growth

CC(=O)N[C@@H](CS)C(=O)O [NAC, N-acetylcysteine, reference compound]
rescue from CA-C-SV40-triggered cell death (EL4 lymphoma cells; CA-C-SV40 at EC50 dose): completely blocked apoptosis
